In brackets after ≈: the same amount, converted by molar mass. Read-outs that look alike come from different tables or passages of the source. Positions of bridges follow the written chain, without caps; N, C: chain ends. Non-standard residues stand in square brackets, D forms with d. Residues, ends and D or L forms follow the SMILES beside them. Lys(N3) = [N-]=[N+]=NCCCC[C@H](N)C(=O)O; R8 = C=CCCCCCC[C@@](C)(N)C(=O)O; Cba = N[C@@H](CC1CCC1)C(=O)O; S5 = C=CCCC[C@](C)(N)C(=O)O; βAla = NCCC(=O)O
Legend:
[1] = system: CellSensor p53RE-bla HCT-116 Cell Line; conditions: 72 h
How it was run: (§1)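 Compound dilution series (10 points, 3-fold, 10 mM top stock in DMSO) tested on overnight-plated Ca Ski cells in RPMI1640/10% FBS and on blasticidin-selected p53RE-bla HCT-116 cells in McCoy's 5A; read-out was CellTiter-Glo 2.0 luminescence after room-temperature equilibration.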

Ca Ski cell line = conditions: 72 h
How it was run: as §1

[2] = Lactate dehydrogenase (LDH) release assay; assay type: cell-based; conditions: LDH: Cytotoxicity assay: EC50
How it was run: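 LDH release, fluorometric membrane-integrity read-out; HCT116 with stable p53-responsive β-lactamase reporter; 8000 cells/well; 0.5% DMSO final; geometric mean, n≥3 biological replicates.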

in vitro = conditions: Nanoclick permeability assay EC50
How it was run: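 Azido-peptide permeability was read as loss of NanoBRET signal (donor 450 nm, acceptor 610 nm) after adding NanoBret618-azide at 10 μM final.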

EPSA = assay type: physicochemical; conditions: EPSA
[3] = Solubility assay (kinetic solubility, PBS pH 7); assay type: physicochemical; conditions: for solubility kinetic: pH 7, aqueous buffer, kinetic from dmso stock, read-out: Solubility
How it was run: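 Values derive from peak-area ratios of sample versus a 100 µM standard, scaled by that standard's concentration.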

[4] = Experimental LogD (partition coefficient); conditions: for logD: not stated, Partition Coeff LogD

Structure (SMILES) | EC50 [1] [nM] | EC50 (Ca Ski cell line) [µM] | EC50 [2] [µM] | cell entry EC50 (in vitro) [nM] | EPSA (EPSA) [A^2] | solubility kinetic ([3]; pH 7, PBS) [µM] | logD [4] | Partition Coeff LogD [4] | Solubility [3] | Solubility ([3]; pH 7, PBS)
CC(=O)N[C@@H](CCCCN=[N+]=[N-])C(=O)NCCC(=O)N[C@@H](CC(C)C)C(=O)N[C@H](C(=O)N[C@@H](Cc1ccccc1)C(=O)N[C@]1(C)CCCCCCC=CCCC[C@@](C)(C(=O)N[C@@H](C)C(=O)N[C@@H](C)C(=O)N[C@@H](Cc2ccccc2)C(=O)N[C@@H](C)C(=O)N[C@@H](C)C(=O)N[C@H](Cc2ccccc2)C(N)=O)NC(=O)[C@H](CC2CCC2)NC(=O)[C@H](CCC(N)=O)NC(=O)[C@H](C)NC(=O)[C@H](Cc2c[nH]c3ccccc23)NC(=O)[C@H](Cc2ccc(O)cc2)NC(=O)[C@H](CCC(=O)O)NC1=O)[C@@H](C)O [MP-063] (Ac-[Lys(N3)][βAla]LTF[R8]EYWAQ[Cba][S5]AAFAA[dF]-NH2; staple 6-13) | 2780 | > 49.8 | > 50.7 | 394 | 199 | 9 (≈ 20.9 µg/mL) |  |  |  | 
CC(=O)N[C@@H](CCCCN=[N+]=[N-])C(=O)NCCC(=O)N[C@@H](CC(C)C)C(=O)N[C@H](C(=O)N[C@@H](Cc1ccccc1)C(=O)N[C@]1(C)CCCCCCC=CCCC[C@@](C)(C(=O)N[C@@H](CO)C(=O)N[C@@H](C)C(=O)N[C@@H](C)C(N)=O)NC(=O)[C@H](CCC(=O)O)NC(=O)[C@H](CCC(N)=O)NC(=O)[C@H](C)NC(=O)[C@H](Cc2c[nH]c3ccccc23)NC(=O)[C@H](Cc2ccc(O)cc2)NC(=O)[C@H](CCC(=O)O)NC1=O)[C@@H](C)O [MP-841] |  | > 49.8 | > 50.7 | 878 | 255 | 162 (≈ 320 µg/mL) | 2.06 |  |  | 
CC(=O)N[C@@H](CCCCN=[N+]=[N-])C(=O)NCCC(=O)N[C@@H](CC(C)C)C(=O)N[C@H](C(=O)N[C@@H](Cc1ccccc1)C(=O)N[C@]1(C)CCCCCCC=CCCC[C@@](C)(C(=O)N[C@@H](C)C(=O)N[C@@H](C)C(=O)N[C@@H](C)C(=O)N[C@@H](C)C(=O)N[C@@H](C)C(=O)N[C@@H](Cc2ccccc2)C(N)=O)NC(=O)[C@H](CC2CCC2)NC(=O)[C@H](CCC(N)=O)NC(=O)[C@H](C)NC(=O)[C@H](Cc2c[nH]c3ccccc23)NC(=O)[C@H](Cc2ccc(O)cc2)NC(=O)[C@H](CCC(=O)O)NC1=O)[C@@H](C)O [MP-060] (Ac-[Lys(N3)][βAla]LTF[R8]EYWAQ[Cba][S5]AAAAAF-NH2; staple 6-13) |  | > 49.8 | > 50.7 | 1090 | 198 |  |  | Poorly Behaved | P.B. | Poorly Behaved
CC(=O)N[C@@H](CCCCN=[N+]=[N-])C(=O)NCCC(=O)N[C@@H](CC(C)C)C(=O)N[C@H](C(=O)N[C@@H](Cc1ccccc1)C(=O)N[C@]1(C)CCCCCCC=CCCC[C@@](C)(C(=O)N[C@@H](CO)C(=O)N[C@@H](C)C(=O)N[C@@H](C)C(N)=O)NC(=O)[C@H](CC2CCC2)NC(=O)[C@H](CCC(N)=O)NC(=O)[C@H](C)NC(=O)[C@H](CCC(=O)O)NC(=O)[C@H](Cc2ccc(O)cc2)NC(=O)[C@H](CCC(=O)O)NC1=O)[C@@H](C)O [MP-956] |  | > 49.8 | > 50.7 | 9220 | 198 | 175 (≈ 335 µg/mL) | 1.7 |  |  | 
CC(=O)N[C@@H](CCCCN=[N+]=[N-])C(=O)NCCC(=O)N[C@@H](CC(C)C)C(=O)N[C@H](C(=O)N[C@@H](CCC(=O)O)C(=O)N[C@]1(C)CCCCCCC=CCCC[C@@](C)(C(=O)N[C@@H](CO)C(=O)N[C@@H](C)C(=O)N[C@@H](C)C(N)=O)NC(=O)[C@H](CC2CCC2)NC(=O)[C@H](CCC(N)=O)NC(=O)[C@H](C)NC(=O)[C@H](Cc2c[nH]c3ccccc23)NC(=O)[C@H](Cc2ccc(O)cc2)NC(=O)[C@H](CCC(=O)O)NC1=O)[C@@H](C)O [MP-843] |  | > 49.8 | > 50.7 | 597 | 208 | 151 (≈ 295 µg/mL) | 1.78 |  |  | 

Source: article PMC10786919, “Design-rules for stapled peptides with in vivo activity and their application to Mdm2/X antagonists” (Nature Communications, 2024)
